The target of the test is T1, Human transferrin (Htf) (Homo sapiens, UniProt P02787).
T1 construct: gene TF; single-chain glycoprotein of 679 amino acids (mature plasma protein)
Briefly: intrinsic fluorescence quenching, modified Stern-Volmer. It is filed as binding. Conditions: 5 μM protein, sodium phosphate (PBS) buffer, excitation 280 nm, emission 300-400 nm, ligand 1-10 μM from DMSO stock; pH and temperature not given.

The values that follow come from article PMC11962429, “Unraveling human transferrin-tryptamine interactions: a computational and biophysical approach to Alzheimer’s disease therapeutics” (Frontiers in Pharmacology, 2025).

Structures are written as SMILES.

T1 sequence (P02787 20-698): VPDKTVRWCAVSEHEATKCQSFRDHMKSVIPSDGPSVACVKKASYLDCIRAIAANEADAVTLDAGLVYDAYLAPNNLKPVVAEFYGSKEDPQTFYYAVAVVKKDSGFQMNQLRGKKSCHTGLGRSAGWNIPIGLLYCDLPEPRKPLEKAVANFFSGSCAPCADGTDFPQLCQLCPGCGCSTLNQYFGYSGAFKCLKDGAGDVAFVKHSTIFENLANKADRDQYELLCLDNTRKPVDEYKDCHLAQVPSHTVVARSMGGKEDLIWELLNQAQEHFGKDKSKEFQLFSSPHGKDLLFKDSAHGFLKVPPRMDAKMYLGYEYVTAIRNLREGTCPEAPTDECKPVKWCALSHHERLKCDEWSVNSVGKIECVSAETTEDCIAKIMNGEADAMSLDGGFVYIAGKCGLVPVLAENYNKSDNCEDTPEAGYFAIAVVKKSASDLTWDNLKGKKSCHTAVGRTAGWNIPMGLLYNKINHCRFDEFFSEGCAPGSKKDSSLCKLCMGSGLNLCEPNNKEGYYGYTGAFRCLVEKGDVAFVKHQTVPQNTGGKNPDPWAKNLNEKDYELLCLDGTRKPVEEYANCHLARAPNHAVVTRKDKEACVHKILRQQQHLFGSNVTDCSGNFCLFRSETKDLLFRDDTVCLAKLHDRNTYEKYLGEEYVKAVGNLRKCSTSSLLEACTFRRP

On to `NCCc1c[nH]c2ccccc12` [Tryptamine], for which the K worked out at 480000 M⁻¹.
